# According to patent US11771709B2, “ALK protein degradation agent and anti-tumor application thereof” (ShanghaiTech University, priority 2017, dated 2023):
# Tested on: SR (NPM-ALK) cells
# Assay: Growth inhibition IC50 in ALCL SR cells (CCK8/WST, 72 hours)
# Type: cell-based
# Conditions: not given
row,SMILES,IC50
1,"CCc1cc2c(cc1N1CCNCC1)C(C)(C)c1[nH]c3cc(C#N)ccc3c1C2=O [Alectinib Analogue A, 9-ethyl-6,6-dimethyl-11-oxo-8-(piperazin-1-yl)-6,11-dihydro-5H-benzo[b]carbazole-3-carbonitrile, reference compound]",2.4 nM

# Same assay, conditions: 72 h, SR cells, WST; Brigatinib-based PROTAD molecules (Table 3)
row,SMILES,IC50
1,"COc1cc(N2CCC(NC(=O)CCOCCOCCOCCOCCOCCNc3cccc4c3C(=O)N(C3CCC(=O)NC3=O)C4=O)CC2)ccc1Nc1ncc(Cl)c(Nc2ccccc2P(C)(C)=O)n1 (centres unmarked) [SIAIS151117, N-(1-(4-((5-chloro-4-((2-(dimethylphosphoryl)phenyl)amino)pyrimidin-2-yl)amino)-3-methoxyphenyl)piperidin-4-yl)-1-((2-(2,6-dioxopiperidin-3-yl)-1,3-dioxoisoindolin-4-yl)amino)-3,6,9,12,15-pentaoxaoctadecan-18-amide]",30.9 ± 21.3 nM

# Same assay, conditions: SR cells, WST, 72 hours; Brigatinib-based PROTAD molecules (Table 3)
row,SMILES,IC50
1,"COc1cc(N2CCNCC2)ccc1Nc1ncc(Cl)c(Nc2ccccc2P(C)(C)=O)n1 [Brigatinib Analogue A(SIAIS1197135), (2-((5-chloro-2-((2-methoxy-4-(piperazin-1-yl)phenyl)amino)pyrimidin-4-yl)amino)phenyl) dimethylphosphine oxide]",1.6 ± 1 nM

# Same assay, conditions: SR cells, WST; Alectinib based ALK PROTAD compounds (Table 4)
row,SMILES,IC50
1,"CCc1cc2c(cc1N1CCC(N)CC1)C(C)(C)c1[nH]c3cc(C#N)ccc3c1C2=O [Alectinib Analogue B(SIAIS184193), 8-(4-aminopiperidin-1-yl)-9-ethyl-6,6-dimethyl-11-oxo-6,11-dihydro-5H-benzo[b]carbazole-3-carbonitrile]",14.7 nM
2,"CCc1cc2c(cc1N1CCC(N3CCNCC3)CC1)C(C)(C)c1[nH]c3cc(C#N)ccc3c1C2=O [Alectinib Analogue C(SIAIS184192), 9-ethyl-6,6-dimethyl-11-oxo-8-(4-(piperazin-1-yl)piperidin-1-yl)-6,11-dihydro-5H-benzo[b]carbazole-3-carbonitrile]",19.1 nM
3,"CCc1cc2c(cc1N1CCN(C(=O)CCNc3cccc4c3C(=O)N(C3CCC(=O)NC3=O)C4=O)CC1)C(C)(C)c1[nH]c3cc(C#N)ccc3c1C2=O (centres unmarked) [SIAIS164029, 8-(4-(3-((2-(2,6-dioxopiperidin-3-yl)-1,3-dioxoisoindolin-4-yl)amino)propanoyl)piperazin-1-yl)-9-ethyl-6,6-dimethyl-11-oxo-6,11-dihydro-5H-benzo[b]carbazole-3-carbonitrile]",27.3 nM
4,"CCc1cc2c(cc1N1CCN(C(=O)CCOCCOCCOCCC(=O)N[C@H](C(=O)N3C[C@H](O)C[C@H]3C(=O)NCc3ccc(-c4scnc4C)cc3)C(C)(C)C)CC1)C(C)(C)c1[nH]c3cc(C#N)ccc3c1C2=O [SIAIS164037, (2S,4R)-1-((S)-2-(tert-butyl)-16-(4-(3-cyano-9-ethyl-6,6-dimethyl-11-oxo-6,11-dihydro-5H-benzo[b]carbazol-8-yl)piperazin-1-yl)-4,16-dioxo-7,10,13-trioxa-3-azahexadecanoyl)-4-hydroxy-N-(4-(4-methylthiazol-5-yl)benzyl)pyrrolidine-2-carboxamide]",153 nM
5,"CCc1cc2c(cc1N1CCN(C(=O)CCCCC(=O)N[C@H](C(=O)N3C[C@H](O)C[C@H]3C(=O)NCc3ccc(-c4scnc4C)cc3)C(C)(C)C)CC1)C(C)(C)c1[nH]c3cc(C#N)ccc3c1C2=O [SIAIS164095, (2S,4R)-1-((S)-2-(6-(4-(3-cyano-9-ethyl-6,6-dimethyl-11-oxo-6,11-dihydro-5H-benzo[b]carbazol-8-yl)piperazin-1-yl)-6-oxohexanamido)-3,3-dimethylbutanoyl)-4-hydroxy-N-(4-(4-methylthiazol-5-yl)benzyl)pyrrolidine-2-carboxamide]",71.3 nM
6,"CCc1cc2c(cc1N1CCN(C(=O)CCCCCC(=O)N[C@H](C(=O)N3C[C@H](O)C[C@H]3C(=O)NCc3ccc(-c4scnc4C)cc3)C(C)(C)C)CC1)C(C)(C)c1[nH]c3cc(C#N)ccc3c1C2=O [SIAIS164096, (2S,4R)-1-((S)-2-(7-(4-(3-cyano-9-ethyl-6,6-dimethyl-11-oxo-6,11-dihydro-5H-benzo[b]carbazol-8-yl)piperazin-1-yl)-7-oxoheptanamido)-3,3-dimethylbutanoyl)-4-hydroxy-N-(4-(4-methylthiazol-5-yl)benzyl)pyrrolidine-2-carboxamide]",79.5 nM
7,"CCc1cc2c(cc1N1CCC(N3CCN(C(=O)CNc4cccc5c4C(=O)N(C4CCC(=O)NC4=O)C5=O)CC3)CC1)C(C)(C)c1[nH]c3cc(C#N)ccc3c1C2=O (centres unmarked) [SIAIS184194, 8-(4-(4-((2-(2,6-dioxopiperidin-3-yl)-1,3-dioxoisoindolin-4-yl)glycyl)piperazin-1-yl)piperidin-1-yl)-9-ethyl-6,6-dimethyl-11-oxo-6,11-dihydro-5H-benzo[b]carbazole-3-carbonitrile]",24.2 nM
8,"CCc1cc2c(cc1N1CCC(NC(=O)CNc3cccc4c3C(=O)N(C3CCC(=O)NC3=O)C4=O)CC1)C(C)(C)c1[nH]c3cc(C#N)ccc3c1C2=O (centres unmarked) [SIAIS219001, N-(1-(3-cyano-9-ethyl-6,6-dimethyl-11-oxo-6,11-dihydro-5H-benzo[b]carbazol-8-yl)piperidin-4-yl)-2-((2-(2,6-dioxopiperidin-3-yl)-1,3-dioxoisoindolin-4-yl)amino)acetamide]",21.3 nM
9,"CCc1cc2c(cc1N1CCC(N3CCN(C(=O)CCCNc4cccc5c4C(=O)N(C4CCC(=O)NC4=O)C5=O)CC3)CC1)C(C)(C)c1[nH]c3cc(C#N)ccc3c1C2=O (centres unmarked) [SIAIS219003, 8-(4-(4-(4-((2-(2,6-dioxopiperidin-3-yl)-1,3-dioxoisoindolin-4-yl)amino)butanoyl)piperazin-1-yl)piperidin-1-yl)-9-ethyl-6,6-dimethyl-11-oxo-6,11-dihydro-5H-benzo[b]carbazole-3-carbonitrile]",21.8 nM
10,"CCc1cc2c(cc1N1CCC(N3CCN(C(=O)CCCCCNc4cccc5c4C(=O)N(C4CCC(=O)NC4=O)C5=O)CC3)CC1)C(C)(C)c1[nH]c3cc(C#N)ccc3c1C2=O (centres unmarked) [SIAIS219004, 8-(4-(4-(6-((2-(2,6-dioxopiperidin-3-yl)-1,3-dioxoisoindolin-4-yl)amino)hexanoyl)piperazin-1-yl)piperidin-1-yl)-9-ethyl-6,6-dimethyl-11-oxo-6,11-dihydro-5H-benzo[b]carbazole-3-carbonitrile]",36.8 nM
11,"CCc1cc2c(cc1N1CCC(NC(=O)CCCNc3cccc4c3C(=O)N(C3CCC(=O)NC3=O)C4=O)CC1)C(C)(C)c1[nH]c3cc(C#N)ccc3c1C2=O (centres unmarked) [SIAIS219010, N-(1-(3-cyano-9-ethyl-6,6-dimethyl-11-oxo-6,11-dihydro-5H-benzo[b]carbazol-8-yl)piperidin-4-yl)-4-((2-(2,6-dioxopiperidin-3-yl)-1,3-dioxoisoindolin-4-yl)amino)butanamide]",31.1 nM
12,"CCc1cc2c(cc1N1CCC(NC(=O)CCCCCNc3cccc4c3C(=O)N(C3CCC(=O)NC3=O)C4=O)CC1)C(C)(C)c1[nH]c3cc(C#N)ccc3c1C2=O (centres unmarked) [SIAIS219011, N-(1-(3-cyano-9-ethyl-6,6-dimethyl-11-oxo-6,11-dihydro-5H-benzo[b]carbazol-8-yl)piperidin-4-yl)-6-((2-(2,6-dioxopiperidin-3-yl)-1,3-dioxoisoindolin-4-yl)amino)hexanamide]",49.9 nM
13,"CCc1cc2c(cc1N1CCC(N3CCN(C(=O)CCCCC(=O)N[C@H](C(=O)N4C[C@H](O)C[C@H]4C(=O)NCc4ccc(-c5scnc5C)cc4)C(C)(C)C)CC3)CC1)C(C)(C)c1[nH]c3cc(C#N)ccc3c1C2=O [SIAIS219015, (2S,4R)-1-((S)-2-(6-(4-(1-(3-cyano-9-ethyl-6,6-dimethyl-11-oxo-6,11-dihydro-5H-benzo[b]carbazol-8-yl)piperidin-4-yl)piperazin-1-yl)-6-oxohexanamido)-3,3-dimethylbutanoyl)-4-hydroxy-N-(4-(4-methylthiazol-5-yl)benzyl)pyrrolidine-2-carboxamide]",110 nM
14,"CCc1cc2c(cc1N1CCC(N3CCN(C(=O)CCCCCCCCC(=O)N[C@H](C(=O)N4C[C@H](O)C[C@H]4C(=O)NCc4ccc(-c5scnc5C)cc4)C(C)(C)C)CC3)CC1)C(C)(C)c1[nH]c3cc(C#N)ccc3c1C2=O [SIAIS219016, (2S,4R)-1-((S)-2-(10-(4-(1-(3-cyano-9-ethyl-6,6-dimethyl-11-oxo-6,11-dihydro-5H-benzo[b]carbazol-8-yl)piperidin-4-yl)piperazin-1-yl)-10-oxodecanamido)-3,3-dimethylbutanoyl)-4-hydroxy-N-(4-(4-methylthiazol-5-yl)benzyl)pyrrolidine-2-carboxamide]",80.8 nM
15,"CCc1cc2c(cc1N1CCC(N3CCN(C(=O)CCOCCOCCNc4cccc5c4C(=O)N(C4CCC(=O)NC4=O)C5=O)CC3)CC1)C(C)(C)c1[nH]c3cc(C#N)ccc3c1C2=O (centres unmarked) [SIAIS219018, 8-(4-(4-(3-(2-(2-((2-(2,6-dioxopiperidin-3-yl)-1,3-dioxoisoindolin-4-yl)amino)ethoxy)ethoxy)propanoyl)piperazin-1-yl)piperidin-1-yl)-9-ethyl-6,6-dimethyl-11-oxo-6,11-dihydro-5H-benzo[b]carbazole-3-carbonitrile]",13.3 nM
16,"CCc1cc2c(cc1N1CCC(N3CCN(C(=O)CCOCCOCCOCCOCCNc4cccc5c4C(=O)N(C4CCC(=O)NC4=O)C5=O)CC3)CC1)C(C)(C)c1[nH]c3cc(C#N)ccc3c1C2=O (centres unmarked) [SIAIS219019, 8-(4-(4-(1-((2-(2,6-dioxopiperidin-3-yl)-1,3-dioxoisoindolin-4-yl)amino)-3,6,9,12-tetraoxapentadecan-15-oyl)piperazin-1-yl)piperidin-1-yl)-9-ethyl-6,6-dimethyl-11-oxo-6,11-dihydro-5H-benzo[b]carbazole-3-carbonitrile]",38.3 nM
17,"CCc1cc2c(cc1N1CCC(NC(=O)CCCCC(=O)N[C@H](C(=O)N3C[C@H](O)C[C@H]3C(=O)NCc3ccc(-c4scnc4C)cc3)C(C)(C)C)CC1)C(C)(C)c1[nH]c3cc(C#N)ccc3c1C2=O [SIAIS219020, N1-(1-(3-cyano-9-ethyl-6,6-dimethyl-11-oxo-6,11-dihydro-5H-benzo[b]carbazol-8-yl)piperidin-4-yl)-N6-((S)-1-((2S,4R)-4-hydroxy-2-((4-(4-methylthiazol-5-yl)benzyl)carbamoyl)pyrrolidin-1-yl)-3,3-dimethyl-1-oxobutan-2-yl)adipamide]",30.3 nM
